Test system: microorganism consortium in the subterranean formation
Procedure: Field tests were conducted on a mature coal-bed methane natural gas well in the Powder River Basin region in Wyoming. […] Total injection volume was 975,450 gallons of formation water, as well as 575.7 lbs. of sodium acetate trihydrate and 2404.7 lbs. of anhydrous sodium acetate. The effective average concentration of acetate in the injection water was 4.06 mM. In the pretreatment period, well 23M-2283 was used to access a microorganism consortium in the subterranean formation and obtain samples for microorganism population analysis.

SMILES: CC(=O)[O-].[Na+] [acetate amendment, sodium acetate]
- total microbial population density (after acetate amendment introduced in situ (effective average 4.06 mM acetate in injection water), pretreatment 4.2×10^4 cells/ml): 1.5×10^6 cells/ml
- acetoclastic methanogens as share of total archaea population (at some points during natural gas recovery operations following the two-week period): ~100%
- acetoclastic methanogens as share of total archaea (two weeks after introduction of the amendment, pretreatment ~20%): greater than 90%
- hydrogenotrophic methanogens as share of total archaea (two weeks after introduction of the amendment, pretreatment ~80%): less than 10%
